Assay results: patent US8357635B2, “Microbiocides” (Syngenta Crop Protection LLC, priority 2009, dated 2013)
Where “and” joins values, the source holds several entries; their conditions need not be identical. Equal values may be shown once.

What was measured:
[1] = test system: Botrytis cinerea; experiment: Action against Botrytis cinerea - fungal growth assay; type: cell-based; conditions: 0.002% active ingredient, PDB broth, 24° C., photometric after 3-4 days
Description: (§1) Conidia of the fungus from cryogenic storage was directly mixed into nutrient broth (PDB potato dextrose broth). After placing a (DMSO) solution of the test compounds (0.002% active ingredient) into a microtiter plate (96-well format) the nutrient broth containing the fungal spores was added. The test plates were incubated at 24° C. and the inhibition of growth was measured photometrically after 3-4 days. The activity of a compound was expressed as fungal growth inhibition (0=no growth inhibition, ratings of 80% to 99% mean good to very good inhibition, 100%=complete inhibition).

[2] = test system: Mycosphaerella arachidis (Cercospora arachidicola); experiment: Action against Mycosphaerella arachidis (early leaf spot of groundnut) - fungal growth assay; type: cell-based; conditions: 0.002% active ingredient, PDB broth, 24° C., photometric after 6-7 days
Description: as §1, with “storage were” for “storage was”, “after 6-7” for “after 3-4”

[3] = test system: Septoria tritici; experiment: Action against Septoria tritici - fungal growth assay; type: cell-based; conditions: Zymoseptoria tritici; 0.002% active ingredient, PDB broth, 24° C., photometric after 72 hrs
Description: as §1, with “storage were” for “storage was”, “was determined” for “was measured”, “after 72 hrs.” for “after 3-4 days.”

[4] = test system: Monographella nivalis (Fusarium nivale, Microdochium nivale); experiment: Action against Monographella nivalis (snow mould) - fungal growth assay; type: cell-based; conditions: 0.002% active ingredient, PDB broth, 24° C., photometric after 72 hrs
Description: as §1, with “storage were” for “storage was”, “a DMSO-solution” for “a (DMSO) solution”, “after 72 hrs” for “after 3-4 days. The activity of a compound was expressed as fungal growth inhibition”

[5] = test system: Erysiphe graminis f.sp. tritici; experiment: Action against Erysiphe graminis f.sp. tritici (wheat powdery mildew), wheat leaf segments; type: in vivo; conditions: Blumeria graminis, foliar, 168 h; 0.02% active ingredient sprayed on wheat leaf segments, assessed 7 days after inoculation; read-out: preventive fungicidal activity (inhibition)
Description: (§2) Wheat leaf segments were placed on agar in multiwell plates (24-well format) and sprayed with test solutions (0.02% active ingredient). After drying, the leaf disks were inoculated with a spore suspension of the fungus. After appropriate incubation the activity of a compound was assessed 7 days after inoculation as preventive fungicidal activity.

[6] = test system: Puccinia recondita; experiment: Protective action against Puccinia recondita (brown rust) on wheat leaf segments; type: in vivo; conditions: foliar, 192 h, 0.02% active ingredient sprayed on wheat leaf segments, assessed 8 days after inoculation, read-out: preventive fungicidal activity (inhibition)
Description: as §2, with “8” for “7”

[7] = test system: Pyrenophora teres; experiment: Action against Pyrenophora teres (net blotch) on barley leaf segments; type: in vivo; conditions: foliar, 96 h, 0.02% active ingredient sprayed on barley leaf segments, assessed 4 days after inoculation, read-out: preventive fungicidal activity (inhibition)
Description: as §2, with “Barley” for “Wheat”, “4” for “7”

[8] = test system: Puccinia recondita; experiment: Curative action against Puccinia recondita (brown rust) on wheat leaf segments; type: in vivo; conditions: foliar, 0.02% active ingredient sprayed one day after inoculation on wheat leaf segments, assessed 8 days after inoculation, read-out: curative fungicidal activity (inhibition)
Description: Wheat leaf segments were placed on agar in multiwell plates (24-well format) and inoculated with a spore suspension of the fungus. One day after inoculation the leaf segments were sprayed with test solutions (0.02% active ingredient). After appropriate incubation the activity of a compound was assessed 8 days after inoculation as curative fungicidal activity.

[9] = test system: Rhizoctonia solani; experiment: Action against Rhizoctonia solani - fungal growth assay; type: cell-based; conditions: 0.002% active ingredient, PDB broth, 24° C., photometric after 3-4 days
Description: as §1, with “Mycelial fragments of a newly grown liquid culture” for “Conidia”, “were” for “from cryogenic storage was”

melting point	SMILES	inhibition at 0.002 % strength [1]	inhibition at 0.002 % strength [2]	inhibition at 0.002 % strength [3]	inhibition at 0.002 % strength [4]	inhibition at 0.02 % strength [5]	inhibition at 0.02 % strength [6]	inhibition at 0.02 % strength [7]	inhibition at 0.02 % strength [8]	inhibition at 0.002 % strength [9]
110 to 113 °C and 110 to 130 °C	CON(C(=O)c1cn(C)nc1C(F)F)C(C)[C@@H]1C[C@H]1c1c(Cl)sc(Cl)c1Cl (relative stereo) [Compound 1.063, trans 3-Difluoromethyl-1-methyl-1H-pyrazole-4-carboxylic acid methoxy-{1-[2-(2,4,5-trichloro-thiophen-3-yl)-cyclopropyl]-ethyl}-amide]	–	–	–	–	–	–	–	–	–
133 to 135 °C	CON(C(=O)c1cn(C)nc1C(F)F)C(C)C1CC1c1ccc(Cl)cc1Cl (single isomer, unassigned) [Compound 1.018A, trans-3-difluoromethyl-1-methyl-1H-pyrazole-4-carboxylic acid {1-[2-(2,4-dichlorophenyl)-cyclopropyl]-ethyl}-methoxy-amide]	–	–	–	–	–	–	–	–	–
142 to 144 °C	CON(C(=O)c1cn(C)nc1C(F)F)C(C)C1CC1c1ccc(Cl)cc1Cl (single isomer, unassigned) [Compound 1.018B, trans-3-difluoromethyl-1-methyl-1H-pyrazole-4-carboxylic acid {1-[2-(2,4-dichlorophenyl)-cyclopropyl]-ethyl}-methoxy-amide]	–	–	–	–	–	–	–	–	–
–	CON(C(=O)c1cn(C)nc1C(F)F)C(C)C1CC1c1ccccc1Cl (stereo not drawn) [Compound 1.011A, trans 3-difluoromethyl-1-methyl-1H-pyrazole-4-carboxylic acid {1-[2-(2-chloro-phenyl)-cyclopropyl]-ethyl}-methoxy-amide]	≥ 80%	≥ 80%	≥ 80%	≥ 80%	≥ 80%	≥ 80%	≥ 80%	–	–
–	CON(C(=O)c1cn(C)nc1C(F)F)C(C)C1CC1c1ccc(Cl)cc1Cl (stereo not drawn) [Compound 1.018A, trans-3-difluoromethyl-1-methyl-1H-pyrazole-4-carboxylic acid {1-[2-(2,4-dichlorophenyl)-cyclopropyl]-ethyl}-methoxy-amide]	≥ 80%	≥ 80%	≥ 80%	≥ 80%	≥ 80%	≥ 80%	≥ 80%	–	–
–	CON(C(=O)c1cn(C)nc1C(F)F)C(C)C1CC1c1ccc(Cl)cc1Cl (stereo not drawn) [Compound 1.018B, trans-3-difluoromethyl-1-methyl-1H-pyrazole-4-carboxylic acid {1-[2-(2,4-dichlorophenyl)-cyclopropyl]-ethyl}-methoxy-amide]	–	–	–	–	–	–	–	≥ 80%	–
–	CON(C(=O)c1cn(C)nc1C(F)F)C(C)C1CC1c1c(F)cccc1Cl (stereo not drawn) [Compound 1.027, trans 3-difluoromethyl-1-methyl-1H-pyrazole-4-carboxylic acid{1-[2-(2-chloro-6-fluoro-phenyl)-cyclopropyl]-ethyl}-methoxy-amide]	≥ 80%	≥ 80%	≥ 80%	≥ 80%	≥ 80%	≥ 80%	≥ 80%	≥ 80%	–
–	CON(C(=O)c1cn(C)nc1C(F)F)C(C)C1CC1c1c(Cl)cccc1Cl (stereo not drawn) [Compound 1.028, trans-3-difluoromethyl-1-methyl-1H-pyrazole-4-carboxylic acid {1-[2-(2,6-dichlorophenyl)-cyclopropyl]-ethyl}-methoxy-amide]	≥ 80%	≥ 80%	≥ 80%	≥ 80%	≥ 80%	≥ 80%	≥ 80%	≥ 80%	≥ 80%
–	CON(C(=O)c1cn(C)nc1C(F)F)C(C)C1CC1c1c(Cl)cc(Cl)cc1Cl (stereo not drawn) [Compound 1.034, trans-3-difluoromethyl-1-methyl-1H-pyrazole-4-carboxylic acid {1-[2-(2,4,6-trichlorophenyl)-cyclopropyl]-ethyl}-methoxy-amide]	≥ 80%	≥ 80%	≥ 80%	≥ 80%	≥ 80%	≥ 80%	≥ 80%	≥ 80%	≥ 80%
